Data on nine molecules can be found in article PMC7795354, “Development of Radiogallium-Labeled Peptides for Platelet-Derived Growth Factor Receptor β (PDGFRβ) Imaging: Influence of Different Linkers” (Molecules, 2020).

The conditions of data set [1]: buffer.
Description: (§3) Briefly, the solution of radiotracers (37 kBq/well, 50 µL) in a sealed tube containing 0.1 M PBS pH 7.4 (450 µL) was incubated at 37 °C for 24 h. At 3 and 24 h after incubation, the purity of radiotracers was analyzed by RP-HPLC. Meanwhile, for stability assay in murine plasma, radiotracers were mixed in murine plasma at a ratio of 1:10. After incubation at 37 °C for 10 min and 1 h, an equivalent amount of ice-cold acetonitrile was added. After centrifugation at 1000× g at 4 °C for 10 min, the supernatant was filtered through a 0.45-µm filter followed by analyzing using RP-HPLC as described above. Then, the radiochemical purities were determined.
The conditions of data set [2]: mouse, 1 h.
Description: as §3
The nature of data set [3]: in vitro. The following applies: mouse, plasma, In vitro stability in murine plasma, percentage of remained intact radiotracer.
Description: as §3
A short description of data set [4]: physchem. The following applies: pH 7.4.
Description: (§4) The octanol-water partition coefficients for radiotracers were determined via the assessment of their distribution in n-octanol and PBS (pH 7.4) using shake-flask method as described previously [48]. Radioactivity of each layer was measured using auto well gamma counter (n = 4).
Data set [5] in a line: In vitro stability in PBS pH 7.4. The settings on record: 37 °C, 0.1 M PBS pH 7.4.
Description: as §3
Data set [6] can be described thus: In vitro stability in murine plasma. The following applies: 37 °C.
Description: as §3
Data set [7] in a line: Octanol-water partition coefficient (log P), shake-flask. The following applies: n-octanol/PBS, pH 7.4.
Description: as §4
The nature of data set [8]: Biodistribution in BxPC3-luc tumor-bearing mice. The settings on record: female, BALB/c nu/nu, mouse, iv, 74 kBq, total radioactivity, 1 h post-injection; for tissue uptake at 1 h: i.v. It is filed as in vivo, BALB/c nu/nu mice. Here is the method:
(§1) All animal handling procedures were approved by the Kanazawa University Animal Care Committee. Experiments with animals were conducted in accordance with the Guidelines for the Care and Use of Laboratory Animals of Kanazawa University. The animals were housed with free access to food and water at 23 °C with a 12 h light/dark schedule. Four-week-old female BALB/c nu/nu mice (12–17 g) were purchased from Japan SLC Inc. (Hamamatsu, Japan). The tumor-bearing model was prepared by subcutaneous inoculation of 1 × 10^7 BxPC3-luc cells into left shoulder of female BALB/c nu/nu mice. The biodistribution experiment was performed approximately 4–5 weeks post-inoculation.
(§2) A saline solution of [^67Ga]27 or [^67Ga]28 (74 kBq, 100 µL) was injected intravenously into the tail vein of the mice. The mice were sacrificed at 10 min post-injection for [^67Ga]27 and 1 h post-injection for [^67Ga]27 or [^67Ga]28. For in vivo blocking studies, 100 μL of a mixed saline solution of [^67Ga]27 (74 kBq) and IPLPPPRRPFFK peptide (1 mg/mouse) was injected via tile vein into the tumor-bearing mice. The mice were sacrificed at 1 h post-injection. Tissues of interest were removed and weighed. The radioactivity of the tissues was determined using an auto well gamma counter, and counts were corrected for background radiation and physical decay during counting. The data were expressed as percent injected dose per gram tissue (%ID/g).

The subject of data set [9] is BxPC3-luc tumor-bearing mice. The data set is described as follows: Biodistribution in BxPC3-luc tumor-bearing mice. The class given is in vivo, BALB/c nu/nu mice. The settings on record: 1 h post-injection, i.v. Here is the method:
as §1, §2

Data set [10] in a line: Biodistribution in BxPC3-luc tumor-bearing mice. The settings on record: female, BALB/c nu/nu, mouse, stomach, iv, 74 kBq, total radioactivity; 1 h post-injection. It is filed as in vivo.
Data set [11] concerns PDGFRβ. The following applies: cited from earlier work.
The mark [12] stands for this setting: mouse, plasma, In vitro stability in murine plasma, percentage of remained intact radiotracer, 1 h.

Where “and” joins values, the source holds several entries; their conditions need not be identical. Equal values may be shown once. Read-outs that look alike come from different tables or passages of the source. *1 amine or outer side, *2 acyl side, *3 side chain or, on linkers, in order; H or OH if unused. Where a SMILES comes first, the peptide text is derived from it. Where no end group is shown, it is not given here. [ ]: non-standard residue; d: D form. The star is where a group is joined. DOTA = O=C(O)CN1CCN(CC(=O)O)CCN(CC(=O)*)CCN(CC(=O)O)CC1; NH(CH2CH2O)4CH2CO = O=C(COCCOCCOCCOCCN[*:1])[*:2]; βAla = NCCC(=O)O Where only a bound is given, the exact number is not on record here.

As usually defined, the share remaining is what is left of the initial amount, in per cent. A low value points to a greater loss. As usually defined, the logP is the decadic logarithm of the partition coefficient of the neutral form, usually between octanol and water. Read a high logP as a more lipophilic compound. Consider `CC[C@H](C)[C@H](NC(=O)CN1CCN(CC(=O)O)CCN(CC(=O)O)CCN(CC(=O)O)CC1)C(=O)N1CCC[C@H]1C(=O)N[C@@H](CC(C)C)C(=O)N1CCC[C@H]1C(=O)N1CCC[C@H]1C(=O)N1CCC[C@H]1C(=O)N[C@@H](CCCNC(=N)N)C(=O)N[C@@H](CCCNC(=N)N)C(=O)N1CCC[C@H]1C(=O)N[C@@H](Cc1ccccc1)C(=O)N[C@@H](Cc1ccccc1)C(=O)N[C@@H](CCCCN)C(=O)O` [[^67Ga]22, [^67Ga]Ga-DOTA-IPLPPPRRPFFK, metal not drawn] ({DOTA}-IPLPPPRRPFFK-OH), for which the entries for the “In vitro stability in PBS pH 7.4, percentage of remained intact radiotracer” value in [1] (3 h) and in [1] (24 h) were 95.3 ± 2.7% and 94.1 ± 0.6%, respectively. In addition, the “In vitro stability in murine plasma, percentage of remained intact radiotracer” value in [2] came to 35.2 ± 1.7%. Besides, the fraction remaining at 1 h in data set [3] came out at 35%. The same molecule registered a log partition coefficient (logP) in [4] of under -4.

On to `CC[C@H](C)[C@H](NC(=O)[C@@H](C)NC(=O)[C@@H](C)NC(=O)[C@@H](C)NC(=O)CN1CCN(CC(=O)O)CCN(CC(=O)O)CCN(CC(=O)O)CC1)C(=O)N1CCC[C@H]1C(=O)N[C@@H](CC(C)C)C(=O)N1CCC[C@H]1C(=O)N1CCC[C@H]1C(=O)N1CCC[C@H]1C(=O)N[C@@H](CCCNC(=N)N)C(=O)N[C@@H](CCCNC(=N)N)C(=O)N1CCC[C@H]1C(=O)N[C@@H](Cc1ccccc1)C(=O)N[C@@H](Cc1ccccc1)C(=O)N[C@@H](CCCCN)C(=O)O` [[^67Ga]23, [^67Ga]Ga-DOTA-aaa-IPLPPPRRPFFK, metal not drawn] ({DOTA}-[dA][dA][dA]IPLPPPRRPFFK-OH), for which the “In vitro stability in PBS pH 7.4, percentage of remained intact radiotracer” value in data set [5] (3 h) is 95.9 ± 0.7%; in data set [5] (24 h), 94.0 ± 0.5%. In [6] (setting [12]), this molecule had an amount remaining at 1 h of 15.7 ± 2.9%. In data set [7], this molecule showed a logP of under -4.

Take `CC[C@H](C)[C@H](NC(=O)[C@@H](C)NC(=O)[C@@H](C)NC(=O)[C@@H](C)NC(=O)[C@@H](C)NC(=O)[C@@H](C)NC(=O)CN1CCN(CC(=O)O)CCN(CC(=O)O)CCN(CC(=O)O)CC1)C(=O)N1CCC[C@H]1C(=O)N[C@@H](CC(C)C)C(=O)N1CCC[C@H]1C(=O)N1CCC[C@H]1C(=O)N1CCC[C@H]1C(=O)N[C@@H](CCCNC(=N)N)C(=O)N[C@@H](CCCNC(=N)N)C(=O)N1CCC[C@H]1C(=O)N[C@@H](Cc1ccccc1)C(=O)N[C@@H](Cc1ccccc1)C(=O)N[C@@H](CCCCN)C(=O)O` [[^67Ga]24, [^67Ga]Ga-DOTA-aaaaa-IPLPPPRRPFFK, metal not drawn] ({DOTA}-[dA][dA][dA][dA][dA]IPLPPPRRPFFK-OH): the “In vitro stability in PBS pH 7.4, percentage of remained intact radiotracer” value in [5] (3 h) is 96.3 ± 1.1%; in data set [5] (24 h), 94.0 ± 0.5%. For the same molecule, the amount remaining at 1 h in [6] (setting [12]) worked out at 41.4 ± 2.5%. In data set [7], the logP is under -4.

Consider `CC[C@H](C)[C@H](NC(=O)CCNC(=O)CCNC(=O)CN1CCN(CC(=O)O)CCN(CC(=O)O)CCN(CC(=O)O)CC1)C(=O)N1CCC[C@H]1C(=O)N[C@@H](CC(C)C)C(=O)N1CCC[C@H]1C(=O)N1CCC[C@H]1C(=O)N1CCC[C@H]1C(=O)N[C@@H](CCCNC(=N)N)C(=O)N[C@@H](CCCNC(=N)N)C(=O)N1CCC[C@H]1C(=O)N[C@@H](Cc1ccccc1)C(=O)N[C@@H](Cc1ccccc1)C(=O)N[C@@H](CCCCN)C(=O)O` [[^67Ga]25, [^67Ga]Ga-DOTA-ββ-IPLPPPRRPFFK, metal not drawn] ({DOTA-βAla-βAla}-IPLPPPRRPFFK-OH), for which the “In vitro stability in PBS pH 7.4, percentage of remained intact radiotracer” value in data set [5] (3 h) was 94.2 ± 1.7%; in [5] (24 h) it was 93.0 ± 0.4%. Besides, in data set [6] (setting [12]), the fraction remaining at 1 h was determined as 26.2 ± 6.7%. Besides, in [7], the logP was under -4.

Consider `CC[C@H](C)[C@H](NC(=O)CCNC(=O)CCNC(=O)CCNC(=O)CCNC(=O)CN1CCN(CC(=O)O)CCN(CC(=O)O)CCN(CC(=O)O)CC1)C(=O)N1CCC[C@H]1C(=O)N[C@@H](CC(C)C)C(=O)N1CCC[C@H]1C(=O)N1CCC[C@H]1C(=O)N1CCC[C@H]1C(=O)N[C@@H](CCCNC(=N)N)C(=O)N[C@@H](CCCNC(=N)N)C(=O)N1CCC[C@H]1C(=O)N[C@@H](Cc1ccccc1)C(=O)N[C@@H](Cc1ccccc1)C(=O)N[C@@H](CCCCN)C(=O)O` [[^67Ga]26, [^67Ga]Ga-DOTA-ββββ-IPLPPPRRPFFK, metal not drawn] ({DOTA-βAla-βAla-βAla-βAla}-IPLPPPRRPFFK-OH), for which the “In vitro stability in PBS pH 7.4, percentage of remained intact radiotracer” value came to 96.9 ± 0.3% in data set [5] (3 h) and 95.4 ± 0.2% in data set [5] (24 h). Moreover, the fraction remaining at 1 h in [6] (setting [12]) was determined as 33.1 ± 5.7%. The molecule also gave a logP in data set [7] of under -4.

For the molecule `CC[C@H](C)[C@H](NC(=O)COCCOCCOCCOCCNC(=O)CN1CCN(CC(=O)O)CCN(CC(=O)O)CCN(CC(=O)O)CC1)C(=O)N1CCC[C@H]1C(=O)N[C@@H](CC(C)C)C(=O)N1CCC[C@H]1C(=O)N1CCC[C@H]1C(=O)N1CCC[C@H]1C(=O)N[C@@H](CCCNC(=N)N)C(=O)N[C@@H](CCCNC(=N)N)C(=O)N1CCC[C@H]1C(=O)N[C@@H](Cc1ccccc1)C(=O)N[C@@H](Cc1ccccc1)C(=O)N[C@@H](CCCCN)C(=O)O` [[^67Ga]28, [^67Ga]Ga-DOTA-EG4-IPLPPPRRPFFK, metal not drawn] ({DOTA}-[NH(CH2CH2O)4CH2CO]IPLPPPRRPFFK-OH), the tissue uptake at 1 h in data set [8] (blood, read-out: Biodistribution, Blood) worked out at 0.12 %ID/g; in data set [8] (bone, read-out: Biodistribution, Bone) it was 0.1 %ID/g; in data set [8] (heart, read-out: Biodistribution, Heart), 0.03 %ID/g; in [8] (BxPC3-luc tumor, read-out: Biodistribution, Tumor), 0.25 %ID/g; in [8] (kidney, read-out: Biodistribution, Kidney) it was 2.96 %ID/g; in data set [8] (large intestine, read-out: Biodistribution, Large intestine) it was 0.11 %ID/g. The tissue uptake at 1 h in data set [8] (liver, read-out: Biodistribution, Liver) is 0.2 %ID/g; in [8] (lung, read-out: Biodistribution, Lung), 0.18 %ID/g; in [8] (muscle, read-out: Biodistribution, Muscle) it was 0.03 %ID/g; in [8] (pancreas, read-out: Biodistribution, Pancreas), 0.07 %ID/g; in [8] (small intestine, read-out: Biodistribution, Small intestine), 0.34 %ID/g; in data set [8] (spleen, read-out: Biodistribution, Spleen) it was 0.07 %ID/g. The tissue to tissue ratio at 1 h in data set [8] (tumor/blood) is 2.05. The “Biodistribution, Brain” value in [9] is 0.00 (0.00) %injected dose/gram tissue. Besides, the Tumor/Blood ratio in [9] was 2.05 and 2.05 ± 0.77. Moreover, the tissue uptake dose at 1 h in [10] was determined as 0.01 %ID. For the same molecule, the “In vitro stability in PBS pH 7.4, percentage of remained intact radiotracer” value in data set [5] (3 h) came to 96.9 ± 0.2%; in data set [5] (24 h) it was 94.3 ± 0.3%. In data set [6] (1 h, 60 min), the “In vitro stability in murine plasma, percentage of remained intact radiotracer” value is 80.1 ± 0.8%. This molecule also displayed a fraction remaining at 10 min in data set [6] (mouse, plasma, In vitro stability in murine plasma, percentage of remained intact radiotracer, 10 min) of 96.2 ± 1.1%. The same molecule showed a share remaining at 1 h in data set [6] (setting [12]) of over 75%. Further, the log partition coefficient (logP) in data set [7] is under -4.

As usually defined, the IC50 is the concentration needed to halve the response being measured. Regarding IPLPPPRRPFFK, the IC50 in [11] (affinity for PDGFRβ) was 480 nM.

Consider “IPLPPPSRPFFK [PDGFR-P1, linear dodecapeptide targeting PDGFRβ identified by biopanning]”, for which the 50% inhibitory concentration (IC50) in [11] (targeting PDGFRβ) is 1400 nM.

Regarding “yIPLPPPRRPFFK ([dY]IPLPPPRRPFFK) [yG2, … with tyrosine at the N-terminal for radioiodination]”, the “Affinity for the PDGFRβ relative to IPLPPPSRPFFKY (PDGFR-P1)” value in [11] (higher affinity) was 16 times.
